Results as given in patent US8188102B2, “Amide derivative for inhibiting the growth of cancer cells” (Hanmi Holdings Co., Ltd., priority 2007, dated 2012).

Experiments:
[1] = tested on: SK-Br3 breast cancer cell line; assay: Cancer cell growth inhibition, SK-Br3 (SRB); settings: Homo sapiens, SK-BR-3, 72 h, read-out: ID50 (nM) SK-Br3
[2] = tested on: A431 skin cancer cell line; assay: Cancer cell growth inhibition, A431 (SRB); settings: Homo sapiens, A-431, 72 h, read-out: ID50 (nM) A431

C=CC(=O)N1CC[C@H](Oc2cc3c(Nc4ccc(F)c(Cl)c4F)ncnc3cc2OC)C[C@H]1C(=O)NCCCO [Example 131, (2S,4S)-1-acryloyl-4-(4-(3-chloro-2,4-difluorophenylamino)-7-methoxyquinazolin-6-yloxy)-N-(3-hydroxypropyl)piperidin-2-carboxamide]
IC50 [1]: 0.5 nM
IC50 [2]: 20 nM

COc1cc2ncnc(Nc3ccc(Cl)c(Cl)c3F)c2cc1OC1CCN(C(=O)/C=C/C(=O)O)CC1 [Example 87, (E)-4-(4-(4-(3,4-dichloro-2-fluorophenylamino)-7-methoxyquinazolin-6-yloxy)piperidin-1-yl)-4-oxobut-2-enoic acid]
IC50 [1]: 469 nM
IC50 [2]: 516 nM

C=C(NC(C)=O)C(=O)N1CCC(Oc2cc3c(Nc4ccc(Cl)c(Cl)c4F)ncnc3cc2OC)CC1 [Example 91, N-(3-(4-(4-(3,4-dichloro-2-fluorophenylamino)-7-methoxyquinazolin-6-yloxy)piperidin-1-yl)-3-oxoprop-1-en-2-yl)acetamide]
IC50 [1]: 194 nM
IC50 [2]: 50 nM

C=C(CN1CCN(C)CC1)C(=O)N1CC(Oc2cc3c(Nc4ccc(F)c(Cl)c4F)ncnc3cc2OC)C1 [Example 106, 1-(3-(4-(3-chloro-2,4-difluorophenylamino)-7-methoxyquinazolin-6-yloxy)azetidin-1-yl)-2-((4-methylpiperazin-1-yl)methyl)prop-2-en-1-one]
IC50 [1]: 0.5 nM
IC50 [2]: 1 nM

C=CC(=O)N1CCC(Oc2cc3c(NCc4cccc(Cl)c4)ncnc3cc2OC)CC1 [Example 72, 1-(4-(4-(3-chlorobenzylamino)-7-methoxyquinazolin-6-yloxy)piperidin-1-yl)pro-2-pen-1-one]
IC50 [1]: 20 nM
IC50 [2]: 61 nM

COC(=O)/C=C\C(=O)N1CCC(Oc2cc3c(Nc4ccc(F)c(Cl)c4F)ncnc3cc2OC)CC1 [Example 83, (Z)-methyl 4-(4-(4-(3-chloro-2,4-difluorophenylamino)-7-methoxyquinazolin-6-yloxy)piperidin-1-yl)-4-oxobut-2-enoate]
IC50 [1]: 23 nM
IC50 [2]: 9 nM

C=CC(=O)N1CC[C@@H](Oc2cc3c(Nc4ccc(F)c(Cl)c4F)ncnc3cc2OC)C1 [Example 20]
IC50 [1]: 57 nM
IC50 [2]: 222 nM

C=CC(=O)N1CCC(Oc2cc3c(Nc4cccc(SC)c4)ncnc3cc2OC)CC1 [Example 68, 1-(4-(7-methoxy-4-(3-(methylthio)phenylamino)quinazolin-6-yloxy)piperidin-1-yl)pro-2-pen-1-one]
IC50 [1]: 10 nM
IC50 [2]: 305 nM

C=CC(=O)N1CCC(Oc2cc3c(Nc4cccc(N(C)C)c4)ncnc3cc2OC)CC1 [Example 64, 1-(4-(4-(3-(dimethylamino)phenylamino)-7-methoxyquinazolin-6-yloxy)piperidin-1-yl)pro-2-pen-1-one]
IC50 [1]: 11 nM
IC50 [2]: 142 nM

C=CC(=O)N1CC[C@H](Oc2cc3c(Nc4ccc(F)c(Cl)c4F)ncnc3cc2OC)C[C@H]1C(=O)NC(C)C [Example 124, (2S,4S)-1-acryloyl-4-(4-(3-chloro-2,4-difluorophenylamino)-7-methoxyquinazolin-6-yloxy)-N-isopropylpiperidin-2-carboxamide]
IC50 [1]: 2.8 nM
IC50 [2]: 7.5 nM

C=CC(=O)Nc1cccc(Nc2ncnc3cc(OC)c(OC4CCN(C(=O)C=C)CC4)cc23)c1 [Example 75, N-(3-(6-(1-acryloylpiperidin-4-yloxy)-7-methoxyquinazolin-4-ylamino)phenyl)acrylamide]
IC50 [1]: 50 nM
IC50 [2]: 400 nM

COc1cc2ncnc(Nc3ccc(F)c(Cl)c3F)c2cc1OC1CCN(C(=O)/C=C\CN(C)C)CC1 [Example 113, (Z)-1-(4-(4-(3-chloro-2,4-difluorophenylamino)-7-methoxyquinazolin-6-yloxy)piperidin-1-yl)-4-(dimethylamino)but-2-en-1-one]
IC50 [1]: 17 nM
IC50 [2]: 6 nM

C/C=C/C(=O)N1CC[C@H](Oc2cc3c(Nc4ccc(F)c(Cl)c4F)ncnc3cc2OC)C1 [Example 2, (E)-1-((3S)-3-(4-(3-chloro-2,4-difluorophenylamino)-7-methoxyquinazolin-6-yloxy)pyrrolidin-1-yl)but-2-en-1-one]
IC50 [1]: 316 nM
IC50 [2]: 85 nM

C=CC(=O)N1CCCC(Oc2cc3c(Nc4ccc(F)c(Cl)c4F)ncnc3cc2OC)C1 (centres unmarked) [Example 18, 1-(3-(4-(3-chloro-2,4-difluorophenylamino)-7-methoxyquinazolin-6-yloxy)piperidin-1-yl)pro-2-pen-1-one]
IC50 [1]: 19 nM
IC50 [2]: 6 nM

C=CC(=O)N1CCC(Oc2cc3c(Nc4cccc(Cl)c4C)ncnc3cc2OC)CC1 [Example 63, 1-(4-(4-(3-chloro-2-methylphenylamino)-7-methoxyquinazolin-6-yloxy)piperidin-1-yl)pro-2-pen-1-one]
IC50 [1]: 1 nM
IC50 [2]: 9 nM

COc1cc2ncnc(Nc3ccc(F)c(Cl)c3F)c2cc1O[C@H]1CCN(C(=O)/C=C/CN2CCOCC2)C1 [Example 94, (E)-1-((3S)-3-(4-(3-chloro-2,4-difluorophenylamino)-7-methoxyquinazolin-6-yloxy)pyrrolidin-1-yl)-4-morpholinobut-2-en-1-one]
IC50 [1]: 123 nM
IC50 [2]: 85 nM

C=CC(=O)N1CC(Oc2cc3c(Nc4cccc(C#N)c4)ncnc3cc2OC)C1 [Example 27, 3-(6-(1-acryloylazetidin-3-yloxy)-7-methoxyquinazolin-4-ylamino)benzonitrile]
IC50 [1]: 3 nM
IC50 [2]: 17 nM

C=CC(=O)N1CC[C@H](Oc2cc3c(Nc4ccc(F)c(Cl)c4)ncnc3cc2OC)C1 [Example 13, 1-((3S)-3-(4-(3-chloro-4-fluorophenylamino)-7-methoxyquinazolin-6-yloxy)pyrrolidin-1-yl)pro-2-pen-1-one]
IC50 [1]: 17 nM

C=CC(=O)N1CCC(Oc2cc3c(Nc4cccc(S)c4)ncnc3cc2OC)CC1 [Example 76, 1-(4-(4-(3-mercaptophenylamino)-7-methoxyquinazolin-6-yloxy)piperidin-1-yl)pro-2-pen-1-one]
IC50 [1]: 100 nM
IC50 [2]: 300 nM

C=CC(=O)N1CCC(Oc2cc3c(Nc4ccc(F)c(F)c4F)ncnc3cc2OC)CC1 [Example 45, 1-(4-(7-methoxy-4-(2,3,4-trifluorophenylamino)quinazolin-6-yloxy)piperidin-1-yl)pro-2-pen-1-one]
IC50 [1]: 3 nM
IC50 [2]: 43 nM

C=C(CN(C)C)C(=O)N1CCC(Oc2cc3c(Nc4ccc(Cl)c(Cl)c4F)ncnc3cc2OC)CC1 [Example 111, 1-(4-(4-(3,4-dichloro-2-fluorophenylamino)-7-methoxyquinazolin-6-yloxy)piperidin-1-yl)-2-((dimethylamino)methyl)prop-2-en-1-one]
IC50 [1]: 6 nM
IC50 [2]: 4 nM

COc1cc2ncnc(Nc3ccc(F)c(Cl)c3F)c2cc1O[C@H]1CCN(C(=O)/C=C/CN(C)C)C1 [Example 92, (E)-1-((3S)-3-(4-(3-chloro-2,4-difluorophenylamino)-7-methoxyquinazolin-6-yloxy)pyrrolidin-1-yl)-4-(dimethylamino)but-2-en-1-one]
IC50 [1]: 8 nM
IC50 [2]: 4 nM

C=CC(=O)N1CCC(Oc2cc3c(Nc4ccc(OCc5cccc(F)c5)c(Cl)c4)ncnc3cc2OC)CC1 [Example 54, 1-(4-(4-(3-chloro-4-(3-fluorobenzyloxy)phenylamino)-7-methoxyquinazolin-6-yloxy)piperidin-1-yl)pro-2-pen-1-one]
IC50 [1]: 2 nM
IC50 [2]: 10 nM

C=C(CN(C)C)C(=O)N1CCC(Oc2cc3c(Nc4ccc(F)c(Cl)c4F)ncnc3cc2OC)CC1 [Example 109, 1-(4-(4-(3-chloro-2,4-difluorophenylamino)-7-methoxyquinazolin-6-yloxy)piperidin-1-yl)-2-((dimethylamino)methyl)prop-2-en-1-one]
IC50 [1]: 3.5 nM
IC50 [2]: 2.7 nM

COc1cc2ncnc(Nc3ccc(F)c(Cl)c3F)c2cc1OC1CN(C(=O)/C=C\CN(C)C)C1 [Example 112, (Z)-1-(3-(4-(3-chloro-2,4-difluorophenylamino)-7-methoxyquinazolin-6-yloxy)azetidin-1-yl)-4-(dimethylamino)but-2-en-1-one]
IC50 [1]: 0.8 nM
IC50 [2]: 15 nM

C=CC(=O)N1CCC(Oc2cc3c(Nc4ccc(O)cc4Cl)ncnc3cc2OC)CC1 [Example 52, 1-(4-(4-(2-chloro-4-hydroxyphenylamino)-7-methoxyquinazolin-6-yloxy)piperidin-1-yl)pro-2-pen-1-one]
IC50 [1]: 30 nM
IC50 [2]: 176 nM

COC(=O)/C=C\C(=O)N1CC(Oc2cc3c(Nc4cccc(Cl)c4F)ncnc3cc2OC)C1 [Example 30, (Z)-methyl 4-(3-(4-(3-chloro-2-fluorophenylamino)-7-methoxyquinazolin-6-yloxy)azetidin-1-yl)-4-oxobut-2-enoate]
IC50 [1]: 0.6 nM
IC50 [2]: 1 nM

C=C(CN1CCOCC1)C(=O)N1CCC(Oc2cc3c(Nc4ccc(F)c(Cl)c4F)ncnc3cc2OC)CC1 [Example 110, 1-(4-(4-(3-chloro-2,4-difluorophenylamino)-7-methoxyquinazolin-6-yloxy)piperidin-1-yl)-2-(morpholinomethyl)prop-2-en-1-one]
IC50 [1]: 30 nM
IC50 [2]: 10 nM

C=CC(=O)N1CCC(Oc2cc3c(Nc4ccc(OCc5ccccn5)c(Cl)c4)ncnc3cc2OC)CC1 [Example 55, 1-(4-(4-(3-chloro-4-(pyridin-2-ylmethoxy)phenylamino)-7-methoxyquinazolin-6-yloxy)piperidin-1-yl)pro-2-pen-1-one]
IC50 [1]: 2 nM

C=CC(=O)N1CC[C@@H](Oc2cc3c(Nc4ccc(F)c(Cl)c4)ncnc3cc2OC)C1 [Example 14]
IC50 [1]: 128 nM

C=CC(=O)N1CCC(Oc2cc3c(Nc4ccc(Cl)c(Cl)c4)ncnc3cc2OC)CC1 [Example 44, 1-(4-(4-(3,4-dichlorophenylamino)-7-methoxyquinazolin-6-yloxy)piperidin-1-yl)pro-2-pen-1-one]
IC50 [1]: 2 nM

COc1cc2ncnc(Nc3ccc(F)c(Cl)c3F)c2cc1OC1CCN(C(=O)/C=C/CN(C)C)CC1 [Example 98, (E)-1-(4-(4-(3-chloro-2,4-difluorophenylamino)-7-methoxyquinazolin-6-yloxy)piperidin-1-yl)-4-(dimethylamino)but-2-en-1-one]
IC50 [1]: 45 nM
